According to patent US20070049564A1 (Wyeth, priority 2005, published 2007):
Values after ≈ are worked out from the molar mass of the structure shown. Like-named read-outs stand apart in the source and are kept apart here.

Assays:
E. coli GC 2231 = experiment: MIC, broth microdilution; details: Escherichia coli
E. coli GC 2235 = experiment: MIC, broth microdilution; details: Escherichia coli
E. coli GC 2233 = experiment: MIC, broth microdilution; details: Escherichia coli
E. coli GC 2270 = experiment: MIC, broth microdilution; details: Escherichia coli
E. coli GC 4560 = experiment: MIC, broth microdilution; details: Escherichia coli
E. coli GC 6465 = experiment: MIC, broth microdilution; details: Escherichia coli
E. coli GC 1073 = experiment: MIC, broth microdilution; details: Escherichia coli
S. typhimurium GC 2172 = experiment: MIC, broth microdilution; details: Salmonella enterica, TYPHIMURIUM
S. aureus GC 6466 = experiment: MIC, broth microdilution; details: Staphylococcus aureus
S. aureus GC 6467 = experiment: MIC, broth microdilution; details: Staphylococcus aureus
S. aureus GC 1079 = experiment: MIC, broth microdilution; details: Staphylococcus aureus
S. aureus GC 4536 = experiment: MIC, broth microdilution; details: Staphylococcus aureus
S. aureus GC 2216 = experiment: MIC, broth microdilution; details: Staphylococcus aureus
S. aureus GC 6469 = experiment: MIC, broth microdilution; details: Staphylococcus aureus
E. faecalis GC 2242 = experiment: MIC, broth microdilution; details: Enterococcus faecalis
E. faecium GC 4556 = experiment: MIC, broth microdilution; details: Enterococcus faecium
E. faecium GC 2243 = experiment: MIC, broth microdilution; details: Enterococcus faecium
c. albicans GC 3066 = experiment: MIC, broth microdilution
E. coli = experiment: Range of MIC for E. coli strains; details: Escherichia coli
Staph. = experiment: Range of MIC for Staph. strains, including MRSA; details: Staphylococcus aureus, MRSA

SMILES: CCCCN(CC(=O)Nc1cc(N(C)C)c2c(c1O)C(=O)C1=C(O)[C@]3(O)C(=O)C(C(N)=O)=C(O)[C@@H](N(C)C)[C@@H]3C[C@@H]1C2)C(=O)OCOC(=O)c1cc(C)cc(C)c1 [Example 22, ({[(2-{[(5aR,6aS,7S,10aS)-9-(aminocarbonyl)-4,7-bis(dimethylamino)-1,8,10a,11-tetrahydroxy-10,12-dioxo-5,5a,6,6a,7,10,10a,12-octahydrotetracen-2-yl]amino}-2-oxoethyl)(butyl)amino]carbonyl}oxy)methyl 3,5-dimethylbenzoate]
- MIC (E. coli GC 2231; GC2231, read-out: MINIMAL INHIBITORY CONCENTRATION MIC, pre-incubated in Mouse Serum): 2 µg/mL (≈ 2.53 µM)
- MIC (E. coli GC 2231; GC2231, read-out: MINIMAL INHIBITORY CONCENTRATION MIC, pre-incubated in Water): > 64 µg/mL
- MIC (E. coli GC 2235; GC2235, read-out: MINIMAL INHIBITORY CONCENTRATION MIC, pre-incubated in Mouse Serum): 1 µg/mL (≈ 1.26 µM)
- MIC (E. coli GC 2235; GC2235, read-out: MINIMAL INHIBITORY CONCENTRATION MIC, pre-incubated in Water): > 64 µg/mL
- MIC (E. coli GC 2233; GC2233, read-out: MINIMAL INHIBITORY CONCENTRATION MIC, pre-incubated in Mouse Serum): 2 µg/mL (≈ 2.53 µM)
- MIC (E. coli GC 2233; GC2233, read-out: MINIMAL INHIBITORY CONCENTRATION MIC, pre-incubated in Water): > 64 µg/mL
- MIC (E. coli GC 2270; GC2270, read-out: MINIMAL INHIBITORY CONCENTRATION MIC, pre-incubated in Mouse Serum): 1 µg/mL (≈ 1.26 µM)
- MIC (E. coli GC 2270; GC2270, read-out: MINIMAL INHIBITORY CONCENTRATION MIC, pre-incubated in Water): > 64 µg/mL
- MIC (E. coli GC 4560; GC4560, read-out: MINIMAL INHIBITORY CONCENTRATION MIC, pre-incubated in Mouse Serum): 0.5 µg/mL (≈ 0.631 µM)
- MIC (E. coli GC 4560; GC4560, read-out: MINIMAL INHIBITORY CONCENTRATION MIC, pre-incubated in Water): > 64 µg/mL
- MIC (E. coli GC 6465; GC6465, read-out: MINIMAL INHIBITORY CONCENTRATION MIC, pre-incubated in Mouse Serum): 8 µg/mL (≈ 10.1 µM)
- MIC (E. coli GC 6465; GC6465, read-out: MINIMAL INHIBITORY CONCENTRATION MIC, pre-incubated in Water): > 64 µg/mL
- MIC (E. coli GC 1073; GC1073, read-out: MINIMAL INHIBITORY CONCENTRATION MIC, pre-incubated in Mouse Serum): 2 µg/mL (≈ 2.53 µM)
- MIC (E. coli GC 1073; GC1073, read-out: MINIMAL INHIBITORY CONCENTRATION MIC, pre-incubated in Water): > 64 µg/mL
- MIC (S. typhimurium GC 2172; read-out: MINIMAL INHIBITORY CONCENTRATION MIC, pre-incubated in Mouse Serum): 8 µg/mL (≈ 10.1 µM)
- MIC (S. typhimurium GC 2172; read-out: MINIMAL INHIBITORY CONCENTRATION MIC, pre-incubated in Water): > 64 µg/mL
- MIC (S. aureus GC 6466; GC6466, read-out: MINIMAL INHIBITORY CONCENTRATION MIC, pre-incubated in Mouse Serum): 0.5 µg/mL (≈ 0.631 µM)
- MIC (S. aureus GC 6466; GC6466, read-out: MINIMAL INHIBITORY CONCENTRATION MIC, pre-incubated in Water): 2 µg/mL (≈ 2.53 µM)
- MIC (S. aureus GC 6467; GC6467, read-out: MINIMAL INHIBITORY CONCENTRATION MIC, pre-incubated in Mouse Serum): 4 µg/mL (≈ 5.05 µM)
- MIC (S. aureus GC 6467; GC6467, read-out: MINIMAL INHIBITORY CONCENTRATION MIC, pre-incubated in Water): > 64 µg/mL
- MIC (S. aureus GC 1079; GC1079, read-out: MINIMAL INHIBITORY CONCENTRATION MIC, pre-incubated in Mouse Serum): 2 µg/mL (≈ 2.53 µM)
- MIC (S. aureus GC 1079; GC1079, read-out: MINIMAL INHIBITORY CONCENTRATION MIC, pre-incubated in Water): 32 µg/mL (≈ 40.4 µM)
- MIC (S. aureus GC 4536; GC4536, read-out: MINIMAL INHIBITORY CONCENTRATION MIC, pre-incubated in Mouse Serum): 1 µg/mL (≈ 1.26 µM)
- MIC (S. aureus GC 4536; GC4536, read-out: MINIMAL INHIBITORY CONCENTRATION MIC, pre-incubated in Water): 2 µg/mL (≈ 2.53 µM)
- MIC (S. aureus GC 2216; GC2216, read-out: MINIMAL INHIBITORY CONCENTRATION MIC, pre-incubated in Mouse Serum): 1 µg/mL (≈ 1.26 µM)
- MIC (S. aureus GC 2216; GC2216, read-out: MINIMAL INHIBITORY CONCENTRATION MIC, pre-incubated in Water): 4 µg/mL (≈ 5.05 µM)
- MIC (S. aureus GC 6469; GC6469, read-out: MINIMAL INHIBITORY CONCENTRATION MIC, pre-incubated in Mouse Serum): 4 µg/mL (≈ 5.05 µM)
- MIC (S. aureus GC 6469; GC6469, read-out: MINIMAL INHIBITORY CONCENTRATION MIC, pre-incubated in Water): 64 µg/mL (≈ 80.8 µM)
- MIC (E. faecalis GC 2242; GC2242, read-out: MINIMAL INHIBITORY CONCENTRATION MIC, pre-incubated in Mouse Serum): 2 µg/mL (≈ 2.53 µM)
- MIC (E. faecalis GC 2242; GC2242, read-out: MINIMAL INHIBITORY CONCENTRATION MIC, pre-incubated in Water): 32 µg/mL (≈ 40.4 µM)
- MIC (E. faecium GC 4556; GC4556, read-out: MINIMAL INHIBITORY CONCENTRATION MIC, pre-incubated in Mouse Serum): 2 µg/mL (≈ 2.53 µM)
- MIC (E. faecium GC 4556; GC4556, read-out: MINIMAL INHIBITORY CONCENTRATION MIC, pre-incubated in Water): 64 µg/mL (≈ 80.8 µM)
- MIC (E. faecium GC 2243; GC2243, read-out: MINIMAL INHIBITORY CONCENTRATION MIC, pre-incubated in Mouse Serum): 1 µg/mL (≈ 1.26 µM)
- MIC (E. faecium GC 2243; GC2243, read-out: MINIMAL INHIBITORY CONCENTRATION MIC, pre-incubated in Water): 8 µg/mL (≈ 10.1 µM)
- MIC (c. albicans GC 3066; Candida albicans, GC3066, read-out: MINIMAL INHIBITORY CONCENTRATION MIC): > 64 µg/mL
- MINIMAL INHIBITORY CONCENTRATION MIC (c. albicans GC 3066; pre-incubated in Water): >64 UG/ML
- MIC (E. coli; 20 h, read-out: Range of MIC, E. coli (Mouse Serum)): 1 to 8 µg/mL (≈ 1.26 to 10.1 µM)
- MIC (E. coli; read-out: Minimum inhibitory concentration (MIC), E. coli (mouse serum)): 1 to 8 µg/mL (≈ 1.26 to 10.1 µM)
- MIC (E. coli; read-out: Minimum inhibitory concentration (MIC), E. coli (water)): > 64 µg/mL
- MIC (E. coli; read-out: Range of MIC, E. coli (Water)): > 64 µg/mL
- MIC (Staph.; read-out: Minimum inhibitory concentration (MIC), Staph. (mouse serum)): 0.5 to 4 µg/mL (≈ 0.631 to 5.05 µM)
- MIC (Staph.; read-out: Range of MIC, Staph (Mouse Serum)): 0.5 to 4 µg/mL (≈ 0.631 to 5.05 µM)
